This note sets out measurements from ChEMBL document CHEMBL1201862, “PubChem BioAssay data set” (2004).

Among the test systems are Hs-578T; MDA-N; NCI-H522; HCC 2998; TK-10; OVCAR-8; SF-295; MCF7; RXF 393; EKVX; HOP-62; HL-60; T47D; NCI/ADR-RES; CCRF-CEM; LOX IMVI; UACC-257; HOP-92; SNB-19; NCI-H226.
Holding throughout (assay): DTP human tumour cell line panel, 48 h

“And” between values parts separate entries of the source, which are not always exact repeats. Identical values can stand only once.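 Assay format: 96-well plates, 48-hour exposure. The concentration for 50% growth inhibition is given as GI50.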 The source made the active and inactive calls. Cut-off read from the data, not from the text of the source: active = GI50 up to about 1.1 µM and inactive = higher.

On to `COC1OC(C(=O)CP(=O)(OC)OC)C(OCc2ccccc2)C(OCc2ccccc2)C1OCc1ccccc1` (configuration not stated), for which the GI50 is 25.6 µM (inactive) and 22.1 µM (inactive) in the experiment with Hs-578T; 16.3 µM (inactive) and 17.1 µM (inactive) in the experiment with MDA-N; 14.5 µM (inactive) and 16 µM (inactive) in the experiment on NCI-H522; 16.2 µM (inactive) and 17.3 µM (inactive) in the experiment with HCC 2998; 17.1 µM (inactive) and 18.8 µM (inactive) in the experiment with TK-10; 19.8 µM (inactive) and 17.9 µM (inactive) in the experiment on OVCAR-8. Moreover, the GI50 is 16.5 µM (inactive) and 14.5 µM (inactive) in the experiment on SF-295; 16.4 µM (inactive) in the experiment with MCF7; 14.8 µM (inactive) and 12.1 µM (inactive) with RXF 393; 15 µM (inactive) and 16.9 µM (inactive) in the experiment with EKVX; 17.2 µM (inactive) and 18 µM (inactive) with HOP-62; 21.8 µM (inactive) and 18.7 µM (inactive) in the experiment with HL-60. The GI50 in the experiment on T47D was 18 µM (inactive) and 15.5 µM (inactive); in the experiment on NCI/ADR-RES it was 18.9 µM (inactive) and 16.4 µM (inactive); in the experiment with CCRF-CEM it was 33.1 µM (inactive) and 25.1 µM (inactive); in the experiment with LOX IMVI, 17.7 µM (inactive) and 17.2 µM (inactive); in the experiment with UACC-257, 16.5 µM (inactive) and 15.7 µM (inactive); with HOP-92, 17.9 µM (inactive) and 19.1 µM (inactive). The GI50 in the experiment on SNB-19 was 15.9 µM (inactive) and 16.3 µM (inactive); in the experiment on NCI-H226, 19.2 µM (inactive) and 18.8 µM (inactive).

Turning to `CC(=O)c1cc2c(s1)C(=O)c1ccsc1C2=O`, the GI50 in the experiment with Hs-578T was 0.158 µM (active); in the experiment on MDA-N it was 0.0802 µM (active); in the experiment with NCI-H522 it was 0.16 µM (active); with HCC 2998, 1.74 µM (inactive); with TK-10, 1.97 µM (inactive); with OVCAR-8 it was 0.373 µM (active). In addition, the GI50 is 0.16 µM (active) in the experiment on SF-295; 0.293 µM (active) with MCF7; 0.244 µM (active) in the experiment with RXF 393; 1.87 µM (inactive) in the experiment with EKVX; 0.491 µM (active) in the experiment on HOP-62; 0.0442 µM (active) in the experiment with HL-60. The GI50 in the experiment on T47D was 1.31 µM (inactive); in the experiment with NCI/ADR-RES, 0.378 µM (active); in the experiment on CCRF-CEM, 0.335 µM (active); with LOX IMVI, 0.0414 µM (active); with UACC-257, 0.132 µM (active); in the experiment with HOP-92, 1.56 µM (inactive). Besides, the GI50 was 0.294 µM (active) in the experiment on SNB-19 and 1.6 µM (inactive) with NCI-H226.

In the case of `[N-]=[N+]=Nc1cc(=O)[nH]nc1-c1ccccc1`, the GI50 in the experiment with Hs-578T, in the experiment on MDA-N, in the experiment with NCI-H522, in the experiment with HCC 2998, with TK-10 and in the experiment on OVCAR-8 was > 100 µM (inactive) in each case. Besides, the GI50 in the experiment on SF-295, in the experiment with MCF7, in the experiment on RXF 393, with EKVX, in the experiment with HOP-62 and with HL-60 was > 100 µM (inactive) each time. The GI50 with T47D, in the experiment on NCI/ADR-RES, in the experiment with CCRF-CEM, in the experiment on LOX IMVI, in the experiment with UACC-257 and with HOP-92 was > 100 µM (inactive) in each case. Besides, the GI50 with NCI-H226 was > 100 µM (inactive).

Consider `CCOC(=O)/C(C#N)=C1\c2c([nH]c(=S)[nH]c2=O)Oc2ccc3ccccc3c21`, for which the GI50 with Hs-578T was 76.6 µM (inactive); in the experiment on MDA-N, 51.2 µM (inactive); with NCI-H522, 19 µM (inactive); in the experiment with HCC 2998, 59.4 µM (inactive); in the experiment with TK-10, 39.9 µM (inactive); in the experiment on OVCAR-8 it was 54.7 µM (inactive). For the same compound, the GI50 in the experiment on SF-295 is > 100 µM (inactive); in the experiment with MCF7, 30.1 µM (inactive); with RXF 393, 36.2 µM (inactive); with EKVX, 22.6 µM (inactive); in the experiment with HOP-62 it was 42.2 µM (inactive); in the experiment on HL-60, 2.64 µM (inactive). The GI50 in the experiment with T47D is 34.7 µM (inactive); in the experiment on NCI/ADR-RES it was 59.3 µM (inactive); in the experiment on CCRF-CEM, 1.55 µM (inactive); in the experiment on LOX IMVI, > 100 µM (inactive); with UACC-257, > 100 µM (inactive); with HOP-92 it was 43.5 µM (inactive). In addition, the GI50 was 0.0887 µM (active) in the experiment on SNB-19 and 18 µM (inactive) in the experiment with NCI-H226.

Consider `COc1ccc(C(C#N)NC23CC4CC(CC(C4)C2)C3)cc1` (configuration not stated), for which the GI50 in the experiment with Hs-578T, in the experiment with MDA-N, in the experiment on NCI-H522, in the experiment on HCC 2998, in the experiment on TK-10 and in the experiment on OVCAR-8 was > 100 µM (inactive) throughout. For the same compound, the GI50 with SF-295 was > 100 µM (inactive); in the experiment with MCF7 it was > 100 µM (inactive); in the experiment with RXF 393, > 100 µM (inactive); in the experiment with EKVX it was > 100 µM (inactive); with HOP-62, > 100 µM (inactive); in the experiment on HL-60, 88.5 µM (inactive). Also, the GI50 is > 100 µM (inactive) with T47D; > 100 µM (inactive) with NCI/ADR-RES; > 100 µM (inactive) with CCRF-CEM; > 100 µM (inactive) with LOX IMVI; > 100 µM (inactive) with UACC-257; 67.9 µM (inactive) in the experiment with HOP-92. Further, the GI50 in the experiment on SNB-19 and with NCI-H226 was > 100 µM (inactive) each time.

With `O=C1CC(NC(=O)C(F)(F)F)c2c1csc2Br` (configuration not stated), the GI50 is > 100 µM (inactive) with Hs-578T; 33.5 µM (inactive) in the experiment with MDA-N; 54.6 µM (inactive) in the experiment on NCI-H522; > 100 µM (inactive) with HCC 2998; 4.91 µM (inactive) in the experiment with TK-10; > 100 µM (inactive) with OVCAR-8. The GI50 was 5.77 µM (inactive) in the experiment with SF-295; 2.94 µM (inactive) with MCF7; 2.87 µM (inactive) in the experiment with RXF 393; 14.8 µM (inactive) in the experiment with EKVX; > 100 µM (inactive) with HOP-62; 53.1 µM (inactive) in the experiment with HL-60. The GI50 in the experiment with T47D is 3.4 µM (inactive); in the experiment on NCI/ADR-RES, > 100 µM (inactive); in the experiment on CCRF-CEM, 33.6 µM (inactive); with LOX IMVI it was 60.3 µM (inactive); in the experiment with UACC-257, > 100 µM (inactive); in the experiment with HOP-92, 35 µM (inactive). Besides, the GI50 with SNB-19 and with NCI-H226 was > 100 µM (inactive) each time.

`COc1ccccc1NC(=O)CC(=O)n1nc(C)c(/N=N/c2ccccc2Cl)c1C`: the GI50 with Hs-578T was > 100 µM (inactive); with MDA-N it was > 31.6 µM (inactive); in the experiment with NCI-H522, > 100 µM (inactive); in the experiment on HCC 2998, > 100 µM (inactive); in the experiment with TK-10 it was > 100 µM (inactive); in the experiment on OVCAR-8 it was > 100 µM (inactive). Moreover, the GI50 in the experiment on SF-295 was 83.4 µM (inactive); with MCF7, > 100 µM (inactive); in the experiment with RXF 393, > 100 µM (inactive); in the experiment on EKVX it was > 90.4 µM (inactive); with HOP-62, 58.3 µM (inactive); in the experiment on HL-60, > 95.5 µM (inactive). The GI50 was > 100 µM (inactive) in the experiment on T47D; > 100 µM (inactive) in the experiment with NCI/ADR-RES; > 81.3 µM (inactive) in the experiment on CCRF-CEM; > 100 µM (inactive) with LOX IMVI; > 91.4 µM (inactive) in the experiment on UACC-257; > 93.8 µM (inactive) with HOP-92. Also, the GI50 in the experiment on SNB-19 and in the experiment with NCI-H226 was > 100 µM (inactive) each time.

On to `C[C@@H]1OCC(O)C([C@H]2OC(c3ccccc3)=N[C@H]2CO)O1` (some centres not stated), for which the GI50 in the experiment on Hs-578T, in the experiment with MDA-N, with NCI-H522, with HCC 2998, in the experiment on TK-10 and in the experiment with OVCAR-8 was > 100 µM (inactive) in each case. The GI50 in the experiment on SF-295, in the experiment on MCF7, in the experiment on RXF 393, in the experiment on EKVX, in the experiment on HOP-62 and with HL-60 was > 100 µM (inactive) each time. The GI50 in the experiment on T47D, with NCI/ADR-RES, with CCRF-CEM, in the experiment on LOX IMVI, with UACC-257 and with HOP-92 was > 100 µM (inactive) in each case. The GI50 in the experiment on SNB-19 and in the experiment on NCI-H226 was > 100 µM (inactive) in each case.

For the compound `COS(C)(=O)=O` [METHANESULFONIC ACID METHYL ESTER], the GI50 in the experiment on Hs-578T, with MDA-N, in the experiment on NCI-H522, in the experiment on HCC 2998, in the experiment with TK-10 and in the experiment on OVCAR-8 was > 2 µM (inactive) each time. Besides, the GI50 with MCF7, with RXF 393, in the experiment on EKVX, with HOP-62, in the experiment on HL-60 and in the experiment on T47D was > 2 µM (inactive) each time. For the same compound, the GI50 with NCI/ADR-RES, in the experiment on CCRF-CEM, in the experiment with LOX IMVI, in the experiment with UACC-257, in the experiment on HOP-92 and with SNB-19 was > 2 µM (inactive) throughout. For the same compound, in the experiment with NCI-H226, the GI50 was > 2 µM (inactive).

For the compound `CO[C@@H]1C[C@H](OC(N)=O)[C@@H]2C=C[C@@H]3/C=C(C)/C=C/[C@@H](C)[C@H]([C@H](C)[C@H](O)[C@@H](C)NC(C)=O)OC(=O)/C=C/C=C(C)\C=C\[C@]3(C)[C@@H]2C1`, the GI50 was < 0.01 µM (active) in the experiment with Hs-578T; < 0.01 µM (active) in the experiment with MDA-N; < 0.01 µM (active) in the experiment with NCI-H522; < 0.01 µM (active) with HCC 2998; 0.22 µM (active) in the experiment with OVCAR-8; < 0.01 µM (active) with SF-295. In addition, the GI50 in the experiment on MCF7 is < 0.01 µM (active); with RXF 393 it was < 0.01 µM (active); in the experiment with EKVX it was 1.24 µM (inactive); in the experiment on HOP-62, < 0.01 µM (active); with HL-60, < 0.01 µM (active); with T47D, < 0.01 µM (active). For the same compound, the GI50 is < 0.01 µM (active) with NCI/ADR-RES; 0.322 µM (active) in the experiment on CCRF-CEM; < 0.01 µM (active) in the experiment on LOX IMVI; 0.0354 µM (active) in the experiment with UACC-257; < 0.01 µM (active) in the experiment with HOP-92; 1.5 µM (inactive) with SNB-19. Besides, the GI50 in the experiment with NCI-H226 is < 0.01 µM (active).

What is called GI50 is the concentration at which growth is held to half of that of the control.
